According to ChEMBL document CHEMBL3217446, “Selenosemicarbazones as potent cruzipain inhibitors and their antiparasitic properties against Trypanosoma cruzi” (Medchemcomm, 2012):
Active and inactive are the calls of the source. No cut-off for these calls is given here.

Assays:
[1] = target: Cruzipain (Trypanosoma cruzi) (UniProt P25779); assay: Inhibition of Trypanosoma cruzi cruzipain using Z-Phe-Arg-AMC as substrate at 10 uM incubated for 5 mins prior to substrate addition measured after 10 mins by fluorescence assay
Cruzipain (Trypanosoma cruzi), sequence (P25779 123-467 limits assumed): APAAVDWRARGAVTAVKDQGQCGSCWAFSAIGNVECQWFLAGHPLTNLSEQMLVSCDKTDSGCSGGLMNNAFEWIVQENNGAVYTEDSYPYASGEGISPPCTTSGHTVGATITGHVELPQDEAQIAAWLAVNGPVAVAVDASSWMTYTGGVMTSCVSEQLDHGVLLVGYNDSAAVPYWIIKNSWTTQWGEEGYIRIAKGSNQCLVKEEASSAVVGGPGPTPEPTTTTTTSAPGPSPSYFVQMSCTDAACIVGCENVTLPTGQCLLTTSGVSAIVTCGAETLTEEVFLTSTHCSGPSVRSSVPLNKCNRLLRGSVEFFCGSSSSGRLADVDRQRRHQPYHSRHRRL

Trypanosoma cruzi [2] = assay: Antitrypanosomal activity against amastigote stage of Trypanosoma cruzi Dm28c infected in African green monkey Vero cells assessed as growth inhibition at IC50 incubated 8 hrs post infection measured after 24 hrs relative to control; format: functional
Trypanosoma cruzi [3] = assay: Antitrypanosomal activity against epimastigote stage of Trypanosoma cruzi Dm28c infected in African green monkey Vero cells after 72 hrs relative to untreated control; format: functional, organism-based
[4] = Selectivity index, ratio of CC50 for African green monkey Vero cells to IC50 for epimastigote stage of Trypanosoma cruzi Dm28c; format: functional
Trypanosoma cruzi [5] = assay: Antitrypanosomal activity against amastigote stage of Trypanosoma cruzi Dm28c infected in African green monkey Vero cells assessed as growth inhibition at 2 times IC50 incubated 8 hrs post infection measured after 24 hrs relative to control; format: functional
Trypanosoma cruzi [6] = assay: Antitrypanosomal activity against amastigote stage of Trypanosoma cruzi Dm28c infected in African green monkey Vero cells assessed as growth inhibition at 4 times IC50 incubated 8 hrs post infection measured after 24 hrs relative to control; format: functional
[7] = Cytotoxicity against African green monkey Vero cells after 72 hrs by resazurin assay; format: cell-based; details: chlorocebus sabaeus
[8] = target: Cruzipain (Trypanosoma cruzi) (UniProt P25779); assay: Inhibition of Trypanosoma cruzi cruzipain using Z-Phe-Arg-AMC as substrate at 2 uM incubated for 5 mins prior to substrate addition measured after 10 mins by fluorescence assay
[9] = target: Cruzipain (Trypanosoma cruzi) (UniProt P25779); assay: Inhibition of Trypanosoma cruzi cruzipain using Z-Phe-Arg-AMC as substrate at 0.3 uM incubated for 5 mins prior to substrate addition measured after 10 mins by fluorescence assay
Cruzipain [10] = target: T1, Cruzipain (Trypanosoma cruzi, UniProt P25779); assay: Non-competitive inhibition of Trypanosoma cruzi cruzipain using Z-Phe-Arg-AMC as substrate assessed as function of velocity after 30 mins
T1 sequence (P25779 whole entry): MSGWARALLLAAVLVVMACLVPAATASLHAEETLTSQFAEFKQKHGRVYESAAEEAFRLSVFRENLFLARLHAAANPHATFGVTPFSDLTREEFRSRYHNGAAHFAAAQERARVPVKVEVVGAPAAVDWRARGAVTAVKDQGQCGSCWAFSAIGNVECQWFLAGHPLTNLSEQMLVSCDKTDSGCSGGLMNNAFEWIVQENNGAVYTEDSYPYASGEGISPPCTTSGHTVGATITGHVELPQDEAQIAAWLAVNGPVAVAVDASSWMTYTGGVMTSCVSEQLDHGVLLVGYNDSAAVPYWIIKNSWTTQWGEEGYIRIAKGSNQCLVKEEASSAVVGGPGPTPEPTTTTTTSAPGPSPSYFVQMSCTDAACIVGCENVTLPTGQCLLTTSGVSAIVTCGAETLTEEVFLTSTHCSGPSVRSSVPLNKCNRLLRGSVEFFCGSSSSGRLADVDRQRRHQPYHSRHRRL

Trypanosoma cruzi [11] = assay: Antitrypanosomal activity against amastigote stage of Trypanosoma cruzi Dm28c infected in African green monkey Vero cells assessed as growth inhibition at 15 uM incubated 8 hrs post infection measured after 24 hrs relative to control; format: functional; details: read-out: GI
Trypanosoma cruzi [12] = assay: Antitrypanosomal activity against amastigote stage of Trypanosoma cruzi Dm28c infected in African green monkey Vero cells assessed as growth inhibition at 1 uM incubated 8 hrs post infection measured after 24 hrs relative to control; format: functional; details: read-out: GI
Trypanosoma cruzi [13] = assay: Antitrypanosomal activity against amastigote stage of Trypanosoma cruzi Dm28c infected in African green monkey Vero cells assessed as growth inhibition at 30 uM incubated 8 hrs post infection measured after 24 hrs relative to control; format: functional; details: read-out: GI
[14] = target: Cruzipain (Trypanosoma cruzi) (UniProt P25779); assay: Reversible inhibition of Trypanosoma cruzi cruzipain at 10 uM pre-incubated for 30 mins
[15] = target: Cruzipain (Trypanosoma cruzi) (UniProt P25779); assay: Slow binding inhibition of Trypanosoma cruzi cruzipain using Z-Phe-Arg-AMC as substrate at 5 to 500 nM after 30 mins by fluorescence assay
Cruzipain [16] = target: T1, Cruzipain; assay: Non-competitive inhibition of Trypanosoma cruzi cruzipain using Z-Phe-Arg-AMC as substrate assessed as function of Vmaxapp after 30 mins

| SMILES | inhibition [1] | growth inhibition (GI) (Trypanosoma cruzi [2]) | IC50 (Trypanosoma cruzi [3]) | Ratio CC50/IC50 [4] | growth inhibition (GI) (Trypanosoma cruzi [5]) | growth inhibition (GI) (Trypanosoma cruzi [6]) | CC50 at 72 h [7] | inhibition [8] | inhibition [9] | Ki (Cruzipain [10]) | inhibition of growth at 15 µM (Trypanosoma cruzi [11]) | inhibition of growth at 1 µM (Trypanosoma cruzi [12]) | inhibition of growth at 30 µM (Trypanosoma cruzi [13]) | inhibition [14] | inhibition [15] | Ki (Cruzipain [16]) |
| --- | --- | --- | --- | --- | --- | --- | --- | --- | --- | --- | --- | --- | --- | --- | --- | --- |
| NC(=[Se])N/N=C/c1ccc(Cl)c(Cl)c1 | 99% | 63% | 2.3 µM | 41 | 69% | 72% | 95.1 µM | 96% | 57% |  |  |  |  |  |  |  |
| C/C(=N/NC(N)=S)c1cccc(Br)c1 | 80% |  |  |  |  |  |  | 79% | 24% | 0.142 µM |  |  |  |  |  |  |
| NC(=[Se])N/N=C/c1cccc(C(F)(F)F)c1 | 91% | 34% | 3.8 µM | 44 | 70% | 74% | 167 µM | 88% | 24% |  |  |  |  |  |  |  |
| NC(=[Se])N/N=C/c1cccc(Br)c1 | 93% |  | 5.9 µM | 29 |  |  | 172 µM | 93% | 40% |  |  |  |  |  |  |  |
| O=C(Cn1ccnc1[N+](=O)[O-])NCc1ccccc1 [BENZNIDAZOLE] |  |  | 12.5 µM | 25 |  |  | 309 µM |  |  |  | 77% | 27% | 85% |  |  |  |
| C/C(=N\NC(N)=[Se])c1cccc(Br)c1 | 98% | 76% | 1.2 µM | 39 | 77% | 78% | 46.4 µM | 87% | 81% | 0.0297 µM |  |  |  | Active | Active |  |
| NC(=[Se])NN=C(c1cccc(Br)c1)c1cccc(Br)c1 | 99% |  | 5.2 µM | 14 |  |  | 71.2 µM | 98% | 90% | 0.0133 µM |  |  |  |  | Active |  |
| CCCC/C(=N/NC(N)=[Se])c1ccc(Cl)c(Cl)c1 | 100% | 66% | 3.2 µM | 25 | 73% | 74% | 81.8 µM | 98% | 95% | 0.0037 µM |  |  |  |  | Active | 0.0064 µM |
